In brackets after ≈: the same amount, converted by molar mass.
Assays:
physchem = assay type: physicochemical; details: 37 °C, pH 6.5, fassif, thermodynamic from solid, apparent solubility
Description: Excess powder (at least 2‐3 times the expected equilibrium solubility) was added to 10 mL preheated simulated intestinal fluids, and the dissolution was monitored until a plateau was reached. […] This is in line with previously reported observations.^[ [26], [27] ^] […] This is likely because of the neutral and more lipophilic properties of felodipine (Table 1), where it is expected to see a larger benefit of the solubilization properties of the formed micelles.
The dissolution and apparent solubilities of two poorly water‐soluble drugs, indomethacin and felodipine, were determined in the simulated intestinal fluids using a MicroDISS Profiler (pION Inc Ltd, East Sussex, UK). In each experiment (n ≥ 3), excess powder (at least 2‐3 times) compared to the expected solubility value was added to 10 mL simulated intestinal fluid. The experiments were performed at 37 °C using a stirring rate of 150 rpm, while the samples were scanned by individual UV probes every 10–30 s. […] The concentrations were determined based on the area under the curve in second derivative spectra evaluated over a range of wavelengths. […] The hydrodynamic size of the simulated intestinal fluids and drugs dissolved in the different simulated intestinal fluids was determined using a Malvern Zetasizer Nano ZSP (Malvern Instruments, Worcestershire, UK) with single‐use disposable microcuvettes. […]

[1] = set-up: method as in PMID 20507160; details: cited from earlier work
[2] = cited from earlier work

Compound	solubility (physchem) [µg/mL]	LogP [1]	Charge (pH 6.5) [1]	CMC [2] [mM]
CCOC(=O)C1=C(C)NC(C)=C(C(=O)OC)C1c1cccc(Cl)c1Cl (stereo not drawn) [Felodipine, felodipine]	49.3 ± 1.9 (≈ 128 µM)	5.58	0	–
COc1ccc2c(c1)c(CC(=O)O)c(C)n2C(=O)c1ccc(Cl)cc1 [Indomethacin, indomethacin]	–	3.51	−1	–
C[C@H](CCC(=O)NCCS(=O)(=O)O)[C@H]1CC[C@H]2[C@@H]3[C@H](O)C[C@@H]4C[C@H](O)CC[C@]4(C)[C@H]3C[C@H](O)[C@]12C [Taurocholic acid, taurocholic acid]	–	–	–	3 to 8
